Data set [1] is described as follows: In vitro aerosol performance of TPIP from HR RS01 DPI by Next Generation Impactor with breath simulator. It is filed as physicochemical. The following applies: 30 LPM; for FPD (<5 μm), TP: 16 mg capsule. As to the method: All the experiments in the following examples of present disclosure were performed with the RS01 Model 7 Plastiape (Plastiape S.p.A., Osnago, Italy) high resistance (HR) (code 239700002AA) DPI device for evaluation. The following examples relate to in vitro aerosol performance of the capsules containing 16 and 32 mg TPIP utilizing the HR RS01 Plastiape device in response to more clinically relevant inhalation profiles deviating from the rectangular wave profile. The aerosol performance were evaluated at different inhalation volumes of 4 L, 2 L or 1 L and at a different peak inspiratory flow rate of 60 LPM corresponding to a pressure drop of 4 kPa or 30 LPM corresponding to a pressure drop of 0.89 kPa across the device to reflect a diverse set of user scenarios.
An RS01 Model 7 Plastiape (Plastiape S.p.A., Osnago, Italy) high resistance (HR) (code 239700002AA) DPI device was used for evaluation. The pressure drop across the HR device containing an empty capsule was measured as a function of flow rate between 30 to 100 L/min (LPM).
To evaluate the differences in aerosol performance in response to different breathing profiles, TPIP aerosol emitted from the HR Plastiape device was delivered to the NGI (MSP Corp., Shoreview, MN) at ambient temperatures and low humidity (<45% RH) under various scenarios generated by the breathing simulator (BRS 3100, Copley), as presented in FIG. 1. A mixing inlet (Copley) was attached in between the pre-separator and the induction port to allow a constant flow rate of 30 or 60 LPM to be achieved through the NGI, while varying the change in inhalation profiles from the HR Plastiape device via BRS system. The outlet port of the NGI was connected to a vacuum pump drawing 30 or 60 LPM airflow (X) via a critical flow controller (TPK 2100, Copley), and an airflow of 30 or 60 LPM (Y) was drawn into the mixing inlet to ensure that initially no airflow (X-Y=0) was drawn through the inhaler. Aerosolization of the powder into the NGI was triggered by the BRS system via a diversion valve that redirects the airflow (Y) into the BRS system. For example, if 30 LPM airflow of Y is redirected to the BRS system, this would cause 30 LPM airflow to be drawn through the inhaler and into the mixing inlet. Therefore, the simulated inhalation profile generated by the BRS system is identical to the inhalation profile through the inhaler.
The BRS software was manually programmed through a Word Pad script to simulate inhalation acceleration rates of 20, 5.88, 2, 1, and 0.5 L/sec^2 corresponding to 50, 170, 500, 1000, and 2000 millisecond (ms) ramp times for a total inhaled volume of 4 L, and for 2 and 1 L inhalation volumes at both extreme acceleration rates to achieve the 60 LPM flow rate. Additionally, the breathing profile scripts for the 1, 2, and 4 L inhalation volumes at 20 and 0.5 L/s^2 (corresponding to 50 and 2000 ms ramp times) to reach the 30 LPM flow rate are included. A trapezoidal waveform was used to maintain the 4 L total inhalation volume as well as to keep the maximum inhalation flow rate at 60 LPM corresponding to the 4 kPa pressure drop across the device (FIG. 2A). Additionally, the breathing profiles with reduced inhalation volumes of 1 and 2 L were evaluated at the two extreme acceleration rates of 20 and 0.5 L/s^2 (corresponding to 50 and 2000 ms ramp times) for the 60 LPM inspiratory flow rate (FIG. 2B), and 25 and 1000 ms ramp times for the 30 LPM inspiratory flow rate (FIG. 2C).
The aerosol performance of each inhalation profile was characterized for TP with respect to its emitted dose (ED), mass median aerodynamic diameter (MMAD), geometric standard deviation (GSD), fine particle fraction<5 μm (FPF) and fine particle dose<5 μm (FPD) as described below. The total recovery of TP was also measured to provide assurance that each experiment was conducted acceptably. […]

The nature of data set [2]: Aerosol performance of TPIP by NGI with four RS01 devices of different resistance. It is filed as physicochemical. As to the method: FIGS. 8A-8C are graphs showing TP Fine Particle Fraction (FPF) (FIG. 8A); Fine Particle Dose (FPD) as a Function of Device Resistance for the 8 mg (blue), 16 mg (orange), and 32 mg (gray) Capsule Dose (FIG. 8B); and TP FPD as a Function of Capsule Dose for Each Device (FIG. 8C). Trend lines are only shown for the UHR and HR DPIs in FIG. 8C. The ultra-high resistance (UHR), the high resistance (HR), the medium resistance (MR) and the low resistance (LR) devices were tested at 40, 60, 85 and 100 LPM, respectively.
The aerosolized composition is administered to a patient in need of treatment of PH, e.g., PAH or PH associated with interstitial lung disease (PH-ILD). In one embodiment, the aerosolized composition is administered to a patient in need of treatment of pulmonary fibrosis (e.g., PH-ILD where the ILD is pulmonary fibrosis). The aerosolized composition can be characterized by certain parameters known to those of skill in the art, such as fine particle fraction (FPF), fine particle dose (FPD), emitted dose (ED), mass median aerodynamic diameter (MMAD) and/or particle size and distribution. In embodiments, these parameters are measured by NGI. In embodiments, the NGI uses a flow rate corresponding to a 3 kPa to 4.5 kPa air pressure drop relative the resistance of the DPI. In embodiments, the pressure drop is 4 kPa. For example, the performance of an ultra high resistance (UHR), high resistance (HR) and medium resistance (MR) devices may be evaluated by drawing 4 L of air through the DPI at a flow rate of 40, 60 and 85 LPM, respectively, corresponding to the 4 kPa air pressure drop. Aerosol characterization data for the above-noted parameters can be compared across different DPI devices (with different resistances). In embodiments, the mean inhaler resistance of a high resistance DPI used to achieve the parameters described herein ranges from 0.025 to 0.040 kPA^1/2 (L/min^−1)^−1. In embodiments, the mean inhaler resistance of a high resistance DPI used to achieve the parameters described herein ranges from 0.030 to 0.040 kPA^1/2 (L/min^−1)^−1. In embodiments, the mean inhaler resistance of a high resistance DPI used to achieve the parameters described herein ranges from about 0.034 to about 0.036 kPA^1/2 (L/min^−1)^−1.
Four Plastiape RS01 Model 7 DPIs (Plastiape S. p.A., Osnago, Italy) differ with respect to their device resistance: Ultra-high Resistance (UHR, code 239700005AA), High Resistance (HR, code 239700002AA), Medium Resistance (MR, code 239700006AA) and Low Resistance (LR, code 239700001AB). The pressure drop across each device containing an empty capsule was measured as a function of flow rate between 30 and 120 L/min (LPM). The present disclosure teaches that the high resistance DPI device is selected for evaluation and use. A peak inspiratory flow rate of 80 LPM, 60 LPM, 40 LPM, or 30 LPM corresponds to a pressure drop of 5.4 kPa, 4 kPa, 1.4 kPa, or 0.89 kPa, respectively, for the high resistance DPI.
In this Example, Applicant investigated the aerosol performance of TPIP in response to changes in capsule fill, device resistance, and inspiratory flow rate to enable selection of an inhaler for clinical use. Capsules containing 8, 16 or 32 mg of TPIP (80, 160, or 320 μg TP, respectively) were evaluated using four breath-actuated RS01 devices with low, medium, high or ultra-high inspiratory resistances, creating 12 different capsule and device configurations for evaluation.
The TP aerosol particle size distribution profiles for the UHR, HR, MR, and LR DPI devices are shown in FIGS. 7A-7C for the 8, 16 and 32 mg TPIP capsules, respectively. The TP aerosol particle size distribution profiles are polydisperse for the LR, MR and HR devices with the UHR device showing a trend towards a less polydisperse profile. The values for the total mass recoveries, emitted dose, MMAD, GSD, FPF, and FPD for the UHR, HR, MR, and LR devices loaded with 8, 16 and 32 mg TPIP capsules are shown in Table 5.

[3] abbreviates: 16 mg capsule, all four devices.
Setting [4] is: 32 mg capsule, LR device, 100 LPM.
Where [5] appears, read: 32 mg capsule, MR device (printed MA), 85 LPM.

Compound `CCCCCCCCCCCCCCCCOC(=O)COc1cccc2c1C[C@H]1C[C@@H](O)[C@H](CC[C@@H](O)CCCCC)[C@H]1C2` [TP, treprostinil palmitil] gave an ED in data set [1] (16 mg capsule, 1, 2, 4 L, 25 ms ramp) of 76%. For the same compound, the emitted doses in data set [1] (16 mg capsule, 1, 2, 4 L, 1000 ms ramp) was 72-75%. Also, the “FPD (<5 μm), TP” value in data set [1] (25 ms ramp, 1 L) was 93 µg; in data set [1] (25 ms ramp, 4 L) it was 92 µg; in data set [1] (1000 ms ramp, 1 L), 87 µg; in data set [1] (1000 ms ramp, 4 L) it was 90 µg; in data set [2] (setting [4]), 155 µg; in data set [2] (setting [5]), 168 µg. Moreover, the FPD in data set [2] (setting [3]) was in the range of 98 to 104 µg; in data set [2] (32 mg capsule, UHR and HR devices), 197 to 200 µg. Further, the FPF in data set [2] (setting [3]) is recorded as 71-81%; in data set [2] (32 mg capsule, all four devices), 58-76%. The “FPF (<5 μm)” value in data set [2] (setting [4]) is recorded as 58%; in data set [2] (setting [5]) it was 62%.

(Values after patent US20260345635A1, “SPRAY DRIED TREPROSTINIL FORMULATION” (Insmed Incorporated, priority 2023, published 2026).)
